Test results from PubChem BioAssay AID330 (DTP/NCI, 2004).
Several values for one entry are separate records, joined by “and”; a condition that tells them apart may be missing. Equal entries are not always repeated. Inconclusive results and toxic doses are left out.

System: P388 leukemia ip, CD2F1 mice, survival T/C
Assay: NCI In Vivo Anticancer Drug Screen. Data for tumor model P388 Leukemia (intraperitoneal) in CD2F1 (CDF1) mice
Settings: endpoint: median survival time, higher = longer survival
Outline: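 Mice carrying the transplanted tumor received test compound or vehicle. Survival was recorded in each group, and the value is the treated-group measurement divided by that of the vehicle-treated control group.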

[1] = dose: 50.0 mg/kg/injection, schedule: Q01DX005 (ip), vehicle: Klucel (hydroxypropylcellulose) (HPC)
[2] = dose: 50.0 mg/kg/injection, schedule: Q01DX005 (ip), vehicle: saline with Tween-80
[3] = dose: 100.0 mg/kg/injection, schedule: Q01DX005 (ip), vehicle: saline with Tween-80
[4] = dose: 200.0 mg/kg/injection, schedule: Q01DX005 (ip), vehicle: saline with Tween-80
[5] = dose: 60.0 mg/kg/injection, schedule: Q01DX005 (ip), vehicle: saline with Tween-80
[6] = dose: 120.0 mg/kg/injection, schedule: Q01DX005 (ip), vehicle: saline with Tween-80
[7] = dose: 240.0 mg/kg/injection, schedule: Q01DX005 (ip), vehicle: saline with Tween-80
[8] = dose: 12.5 mg/kg/injection, schedule: Q01DX009 (ip), vehicle: water
[9] = dose: 25.0 mg/kg/injection, schedule: Q01DX009 (ip), vehicle: water
[10] = dose: 50.0 mg/kg/injection, schedule: Q01DX009 (ip), vehicle: water
[11] = dose: 100.0 mg/kg/injection, schedule: Q04DX003 (ip), vehicle: saline
[12] = dose: 50.0 mg/kg/injection, schedule: Q01DX009 (ip), vehicle: saline with Tween-80
[13] = dose: 100.0 mg/kg/injection, schedule: Q01DX009 (ip), vehicle: saline with Tween-80
[14] = dose: 200.0 mg/kg/injection, schedule: Q01DX009 (ip), vehicle: saline with Tween-80

N[C@@H](C[C@H]1CCC(=O)[C@@H]2O[C@H]12)C(=O)O
T/C (dose: 100.0 mg/kg/injection, schedule: Q04DX002 (ip), vehicle: saline): 100 % of control
T/C (dose: 200.0 mg/kg/injection, schedule: Q04DX002 (ip), vehicle: saline): 98 % of control
T/C (dose: 400.0 mg/kg/injection, schedule: Q04DX002 (ip), vehicle: saline): 108 % of control
T/C (dose: 600.0 mg/kg/injection, schedule: Q04DX002 (ip), vehicle: saline): 112 % of control

CCCCCCCCSC1=CC(=O)C(OC)=C(OC)C1=O
T/C (dose: 4.0 mg/kg/injection, schedule: Q01DX009 (ip), vehicle: Klucel (hydroxypropylcellulose) (HPC)): 92 % of control
T/C (dose: 8.0 mg/kg/injection, schedule: Q01DX009 (ip), vehicle: Klucel (hydroxypropylcellulose) (HPC)): 95 % of control

O=C(O)C1=C(O)CCN=C1
T/C (dose: 12.5 mg/kg/injection, schedule: Q01DX005 (ip), vehicle: Klucel (hydroxypropylcellulose) (HPC)): 99 % of control
T/C (dose: 25.0 mg/kg/injection, schedule: Q01DX005 (ip), vehicle: Klucel (hydroxypropylcellulose) (HPC)): 99 % of control
T/C [1]: 105 % of control

CCn1c(=NC(=O)c2ccccc2O)sc2ccccc21
T/C (dose: 100.0 mg/kg/injection, schedule: Q01DX001 (ip), vehicle: saline): 98 % of control and 95 % of control
T/C (dose: 200.0 mg/kg/injection, schedule: Q01DX001 (ip), vehicle: saline): 103 % of control and 95 % of control
T/C (dose: 400.0 mg/kg/injection, schedule: Q01DX001 (ip), vehicle: saline): 100 % of control and 103 % of control

CC1NC(=O)N(C(C)C)C1=O (stereo unspecified)
T/C [2]: 100 % of control
T/C [3]: 100 % of control
T/C [4]: 106 % of control

CC(=O)Nc1ccc(S(=O)(=O)n2c(=O)oc3cc(Cl)ccc32)cc1
T/C [1]: 86 % of control
T/C (dose: 100.0 mg/kg/injection, schedule: Q01DX005 (ip), vehicle: Klucel (hydroxypropylcellulose) (HPC)): 99 % of control
T/C (dose: 200.0 mg/kg/injection, schedule: Q01DX005 (ip), vehicle: Klucel (hydroxypropylcellulose) (HPC)): 86 % of control

O=C1C=C(NCC2CCCN3CCCCC23)C(=O)c2ccccc21 (stereo unspecified)
T/C (dose: 94.62 mg/kg/injection, schedule: Q04DX002 (ip), vehicle: Klucel (hydroxypropylcellulose) (HPC)): 112 % of control
T/C (dose: 189.25 mg/kg/injection, schedule: Q04DX002 (ip), vehicle: Klucel (hydroxypropylcellulose) (HPC)): 111 % of control

O=C1CCCC2=C1C(c1ccc(Cl)c(Cl)c1)C1=C(CCCC1=O)O2
T/C [5]: 95 % of control
T/C [6]: 95 % of control
T/C [7]: 94 % of control

O=C(O)c1cccc(/C=C/c2ccccc2)c1
T/C [2]: 107 % of control
T/C [3]: 105 % of control
T/C [4]: 114 % of control

CCOC(=O)C1C(c2cccc(OC)c2O)c2cc3c(cc2OC1(C)N1CCCC1)OCO3 (stereo unspecified)
T/C [5]: 99 % of control
T/C [6]: 92 % of control
T/C [7]: 89 % of control

O=NNc1ccc(S(=O)(=O)c2ccc(NN=O)cc2)cc1
T/C (dose: 3.12 mg/kg/injection, schedule: Q01DX009 (ip), vehicle: water): 91 % of control
T/C (dose: 6.25 mg/kg/injection, schedule: Q01DX009 (ip), vehicle: water): 110 % of control
T/C [8]: 119 % of control
T/C [9]: 116 % of control
T/C (dose: 37.5 mg/kg/injection, schedule: Q01DX009 (ip), vehicle: water): 122 % of control
T/C [10]: 119 % of control
T/C (dose: 75.0 mg/kg/injection, schedule: Q01DX009 (ip), vehicle: water): 113 % of control

CC1C(=O)SCC1(O)c1ccccc1 (stereo unspecified)
T/C (dose: 100.0 mg/kg/injection, schedule: Q04DX002 (ip), vehicle: Klucel (hydroxypropylcellulose) (HPC)): 102 % of control
T/C (dose: 200.0 mg/kg/injection, schedule: Q04DX002 (ip), vehicle: Klucel (hydroxypropylcellulose) (HPC)): 103 % of control
T/C (dose: 400.0 mg/kg/injection, schedule: Q04DX002 (ip), vehicle: Klucel (hydroxypropylcellulose) (HPC)): 107 % of control

O=C(CN1CC1)NCCCCCCCCNC(=O)CN1CC1
T/C (dose: 25.0 mg/kg/injection, schedule: Q04DX003 (ip), vehicle: saline with Tween-80): 159 % of control
T/C (dose: 33.0 mg/kg/injection, schedule: Q04DX003 (ip), vehicle: saline with Tween-80): 200 % of control
T/C (dose: 50.0 mg/kg/injection, schedule: Q04DX003 (ip), vehicle: saline with Tween-80): 181 % of control and 209 % of control

CC(C)CC(=O)C(c1ccccc1)C(CC(C)C)C(=O)C1C(c2ccccc2)CC(=O)C(C(C)C)C1c1ccccc1 (stereo unspecified)
T/C [2]: 101 % of control
T/C [3]: 92 % of control
T/C [4]: 87 % of control

CC(=O)CC(C)=NCCN=C(C)CC(C)=O.C[CH2][Sn][CH2]C
T/C (dose: 12.5 mg/kg/injection, schedule: Q04DX003 (ip), vehicle: saline): 106 % of control
T/C (dose: 25.0 mg/kg/injection, schedule: Q04DX003 (ip), vehicle: saline): 105 % of control
T/C (dose: 50.0 mg/kg/injection, schedule: Q04DX003 (ip), vehicle: saline): 120 % of control
T/C [11]: 150 % of control

CCOC(=O)C(CC(C)/C=N\Nc1ccccc1)(NC(C)=O)C(=O)OCC (stereo unspecified)
T/C (dose: 100.0 mg/kg/injection, schedule: Q01DX001 (ip), vehicle: Klucel (hydroxypropylcellulose) (HPC)): 95 % of control
T/C (dose: 200.0 mg/kg/injection, schedule: Q01DX001 (ip), vehicle: Klucel (hydroxypropylcellulose) (HPC)): 93 % of control
T/C (dose: 400.0 mg/kg/injection, schedule: Q01DX001 (ip), vehicle: Klucel (hydroxypropylcellulose) (HPC)): 99 % of control

CN(C)c1nc(N(C)C)n2c(-c3ccccc3[N+](=O)[O-])nnc2n1
T/C [12]: 99 % of control
T/C [13]: 102 % of control
T/C [14]: 99 % of control

COC(=O)C[C@](O)(CCC(C)(C)O)C(=O)O[C@@H]1C(OC)=C[C@]23CCCN2CCc2cc4c(cc2[C@H]13)OCO4
T/C (dose: 0.5 mg/kg/injection, schedule: Q01DX009 (ip), vehicle: saline): 177 % of control
T/C (dose: 1.0 mg/kg/injection, schedule: Q01DX009 (ip), vehicle: saline): 231 % of control

ClCCN(CCCl)c1ccc(N=Nc2ccc(-c3ccccc3)cc2)cc1
T/C (dose: 3.0 mg/kg/injection, schedule: Q01DX001 (ip), vehicle: Klucel (hydroxypropylcellulose) (HPC)): 95 % of control
T/C (dose: 6.0 mg/kg/injection, schedule: Q01DX001 (ip), vehicle: Klucel (hydroxypropylcellulose) (HPC)): 103 % of control
T/C (dose: 12.0 mg/kg/injection, schedule: Q01DX001 (ip), vehicle: Klucel (hydroxypropylcellulose) (HPC)): 93 % of control

O=C1CCC(c2nc3ccccc3[nH]2)N1Cc1csc(-c2ccccc2)n1 (stereo unspecified)
T/C [5]: 98 % of control
T/C [6]: 93 % of control
T/C [7]: 88 % of control

COc1cccc(-c2nc(SCC(N)=O)[nH]c(=O)c2C#N)c1
T/C [2]: 112 % of control
T/C [3]: 98 % of control
T/C [4]: 98 % of control

Nc1nc2ccccc2c2c1C(=O)NC2=O
T/C [12]: 104 % of control
T/C [13]: 86 % of control
T/C [14]: 90 % of control

CC(=O)[O-].O=C(N/N=C/c1ccccc1[O-])c1ccccc1.[Zn+2]
T/C [5]: 95 % of control
T/C [6]: 106 % of control

O=C1CC2OCC=C3CN4CCC56c7ccccc7N1C5C2C3CC46 (stereo unspecified)
T/C (dose: 0.2 mg/kg/injection, schedule: Q01DX009 (ip), vehicle: saline with Tween-80): 100 % of control
T/C (dose: 0.4 mg/kg/injection, schedule: Q01DX009 (ip), vehicle: saline with Tween-80): 102 % of control
T/C (dose: 0.8 mg/kg/injection, schedule: Q01DX009 (ip), vehicle: saline with Tween-80): 97 % of control

CC(=O)Nc1ccc(S(=O)(=O)OC(C)C)cc1
T/C [11]: 105 % of control
T/C (dose: 200.0 mg/kg/injection, schedule: Q04DX003 (ip), vehicle: saline): 113 % of control
T/C (dose: 400.0 mg/kg/injection, schedule: Q04DX003 (ip), vehicle: saline): 118 % of control

COC(=O)[C@H]1C[C@@H](N)[C@H](O)[C@@H]1O
T/C (dose: 60.0 mg/kg/injection, schedule: Q01DX005 (ip), vehicle: saline): 102 % of control
T/C (dose: 120.0 mg/kg/injection, schedule: Q01DX005 (ip), vehicle: saline): 101 % of control
T/C (dose: 240.0 mg/kg/injection, schedule: Q01DX005 (ip), vehicle: saline): 100 % of control

COc1cc2c[n+]3c4c(cccc4c2cc1OC)CCC3
T/C [8]: 109 % of control
T/C [9]: 108 % of control
T/C [10]: 110 % of control

CCOC(=O)CS(=O)(=O)CCCCCCS(=O)(=O)CC(=O)OCC
T/C (dose: 50.0 mg/kg/injection, schedule: Q01DX009 (ip), vehicle: saline): 103 % of control
T/C (dose: 100.0 mg/kg/injection, schedule: Q01DX009 (ip), vehicle: saline): 91 % of control
T/C (dose: 200.0 mg/kg/injection, schedule: Q01DX009 (ip), vehicle: saline): 94 % of control
